The values below come from US9137997B2 (priority 2011, dated 2015).

Consider `Cc1ccc2sc3c(=O)n(C)c(=O)c=3sc2c1`, for which the melting point (as a rule, the temperature, or range, at which the solid turns liquid) was in the range of 171 to 176 °C.
